Data from patent publication US20120301551A1, “COMPOUNDS AND COMPOSITIONS FOR TREATING NEURONAL DEATH OR NEUROLOGICAL DYSFUNCTION” (Neurotech Pharmaceuticals Co., Ltd., priority 2005, published 2012).

Tests used:
G93A transgenic mice = assay: oxidative stress in lumbar spinal motor neurons of G93A transgenic mice (nitrotyrosine, MitoTracker); format: in vivo, mouse; conditions: 30 mg/kg/d oral in diet from 8 weeks of age, at 10 weeks of age
From the text: D: Fluorescent photomicrographs of the lumbar ventral section immunolabeled with nitrotyrosine antibody from the wild type (a), or ALS transgenic mice treated with vehicle (b), or 2-hydroxy TTBA for 2 weeks starting from at age of 8 weeks (c). Arrows indicate motor neurons (top panel). Levels of nitrotyrosine were quantitated, mean±SEM (n=15 sections from 3 mice per each condition (bottom panel). p<0.05 using ANOVA and Student-Newman-Keuls test.
E: Same as D except measurement of the fluorescence intensity of oxidized MT red CM-H2XRos. p<0.05 using ANOVA and Student-Newman-Keuls test.
G93A transgenic mice received oral administration of 2-hydroxy-TTBA (30 mg/kg/d) in the diet from 8 weeks of age. The oral administration of 2-Hydroxy-TTBA blocked nitrotyrosine, and mitochondrial free radical increased in the lumbar spinal motor neurons at 10 weeks of age compared to the wild type (FIGS. 5D & 5E). […] Thus, cell necrosis and Fas-mediated apoptosis induced in G93A mice can be prevented by oral administration of 2-hydroxy-TTBA and Li^+.

[1] = test system: Fas, FADD, cleaved caspase-8 and caspase-3; assay: Fas pathway in lumbar spinal cord of G93A transgenic mice (Western blot); conditions: at 12 weeks of age; 2-hydroxy-TTBA 30 mg/kg/d, Li^+ 200 mg/kg/d in the diet
[2] = single-dose toxicity test; conditions: mouse, in vivo; single dose
Protocol: Single-dose toxicity test of compounds showing good results in the above three efficacy tests were evaluated.

[3] = DPPH free radical scavenging; format: biochemical
From the text: Free radical scavenging activity of chemical 01 was directly evaluated with 1,1-diphenyl-2-picrylhydrazil (DPPH, a stable free radical).

Tg2576 transgenic mice [4] = assay: brain Aβ42/Aβ40 levels in Tg2576 transgenic mice (ELISA); format: in vivo, mouse; conditions: 25 mg/kg/d for 8 months (9~17 months)
Protocol: 17 month-old Tg2576 transgenic mice were fed chow alone, or containing 25 mg/kg/day of chemical 01, for 8 months before being sacrificed (9˜17 months). The level of Aβ42 or Aβ40 protein was quantitatively analyzed by colorimetric sandwich ELISA kit (BIOSOURCE, Camarillo, Calif.) (mean±SEM, n=2).
17 month-old Tg2576 transgenic mice were fed chow alone (saline only), or containing 25 mg/kg/day of chemical—01, for 8 months before being sacrificed (9˜17 month). SDS-soluble/insoluble Aβ42 or Aβ40 levels were analyzed by colorimetric sandwich ELISA kit (BIOSOURCE, Camarillo, Calif.).

Tg2576 transgenic mice [5] = assay: Morris water maze in Tg2576 transgenic mice; format: in vivo, mouse; conditions: 25 mg/kg/day for 5 months (9~14 months)
Protocol: 14 month-old Tg2576 transgenic mice were fed chow alone, or containing 25 mg/kg/day of chemical 01, for 5 months (9˜14 months). After administration of 5 months, the cognitive function was analyzed by Morris water maze test. Training was performed 4 times a day (4 trials/day) for 5 days. If mouse stay on the platform for over 10 seconds, it is thought to be a success. After 5 days of experiments, the latency to find the platform was recorded and analyzed for each mouse (mean±SEM, n=2).
14 month-old Tg2576 transgenic mice were fed chow alone (saline only), or containing 25 mg/kg/day of chemical—01, for 5 months (9˜14 month).
The cognitive function was analyzed by Morris water maze test. Mice ware trained to perform a hidden platform task in the Morris water maze. The latency to find the platform was recorded for each mouse.

APP/PS1 mouse = assay: plasma Aβ40/Aβ42 levels in APP/PS1 mouse; format: in vivo
Protocol: Also, treatment with 25 mg/kg/day of chemical 01 for 5 days in 11.5 month-old APP/PS1 mouse caused a significant 44% reduction in SDS-insoluble Aβ42 levels in plasma and a significant 38% reduction in SDS-insoluble Aβ40 levels in plasma compared to APP/PS1 mouse fed with general chow only.
In further, treatment with 25 mg/kg/d of chemical—01 for 7 months (from 3.5 to 10.5 months) caused a significant 42% reduction in SDS-insoluble Aβ40 levels (data not shown). Also, treatment with 25 mg/kg/d of chemical—01 for 5 days in 11.5 months caused a significant 40% reduction in SDS-insoluble Aβ40/Aβ42 levels in plasma (data not shown).

G93A mouse = assay: microglia number and activation in G93A mouse (TOMATO Lectin); format: in vivo; conditions: 5 mg/kg/day or 20 mg/kg/day; lumbar ventral horn
Protocol: Number and activation degree of microglia (a marker of inflammation in brain disease animal model) expressed in the lumbar ventral horn of G93A mouse were evaluated with TOMATO Lectin dye. In G93A mouse, number of microglia was increased and microglia was more activated compared to the wild type mouse. Treatment with 5 mg/kg/day or 20 mg/kg/day of chemical 01 decreased the increase of number and activation degree of microglia (FIG. 13F).

G93A mice = assay: inflammatory cytokine mRNA in lumbar segments of G93A mice (RT-PCR); format: in vivo, mouse; conditions: 16 week-old G93A mice, 5 mg/kg/day or 20 mg/kg/day in chow
Protocol: Lumbar segments of 16 week-old G93A mice fed with general chow only, and 16 week-old G93A mice fed with chow containing 5 mg/kg/day or 20 mg/kg/day of chemical 01 were extracted and their RNA were separated. The mRNA expression degrees of TNF-a and IL-16, cytokines inducing inflammation, were evaluated through RT-PCT.

NO = assay: LPS-induced NO in mesencephalic cultures; format: cell-based; conditions: 5 ng/ml LPS; 0-100 uM; 24 hours
Protocol: (§1) Mesencephalic nerve cell cultures were pre-treated with 5 ng/ml of LPS for 30 minutes to make a cull culture model of Parkinson's disease, and then 0-100 uM of chemical 01 were added. The level of NO was evaluated 24 hours after administration of chemical 01, and the level of TNF-a was evaluated 3 hours after administration of chemical 01 (mean±SEM, n=7-12 culture well/each group).

TNF-a = assay: LPS-induced TNF-a in mesencephalic cultures; format: cell-based; conditions: 5 ng/ml LPS; 0-100 uM; 3 hours
Protocol: as §1

[6] = 25 mg/kg/day for 5 days in 11.5 month-old APP/PS1 mouse

## O=C(O)c1cc(NCc2c(F)c(F)c(C(F)(F)F)c(F)c2F)ccc1O [2-Hydroxy-TTBA, 2-hydroxy-5-(2,3,5,6-tetrafluoro-4-trifluoromethyl-benzylamino)-benzoic acid]
G93A transgenic mice
  nitrotyrosine and mitochondrial free radical increased in the lumbar spinal motor neurons: blocked
[1]
  levels of Fas, FADD, cleaved caspase-8 and caspase-3 (Fas pathway) in lumbar spinal cord: slightly attenuated

## O=C(O)c1cc(NCCc2ccc(C(F)(F)F)cc2)ccc1O [chemical 01, 2-Hydroxy-5-[2-(4-trifluoromethyl-phenyl)-ethylamino]-benzoic acid]
[2]
  LD50: > 3000 mg/kg
[3]
  IC50: 9.55 µM
Tg2576 transgenic mice [4]
  SDS-soluble/insoluble Aβ42 and Aβ40 levels, in words: decreased
Tg2576 transgenic mice [4]; listed as chemical—01
  SDS-soluble/insoluble Aβ42 and Aβ40 levels, in words: reduced
Tg2576 transgenic mice [5]
  escape latency (latency to find the platform): shorter
APP/PS1 mouse; 25 mg/kg/d for 5 days in 11.5 months
  reduction in SDS-insoluble Aβ40/Aβ42 levels in plasma: 40%
APP/PS1 mouse; [6]
  reduction in SDS-insoluble Aβ40 levels in plasma: 38%
  reduction in SDS-insoluble Aβ42 levels in plasma: 44%
G93A mouse
  increase of number and activation degree of microglia: decreased
G93A mice
  mRNA expression of TNF-a and IL-16, cytokines inducing inflammation: effectively reduced
NO
  increase of NO caused by LPS: dose-dependent manner
TNF-a
  increase of TNF-a caused by LPS: dose-dependent manner
